{
  "source": "paper PMC10489938",
  "about": "“Developing an Amide-Spacered Triterpenoid Rhodamine Hybrid of Nano-Molar Cytotoxicity Combined with Excellent Tumor Cell/Non-Tumor Cell Selectivity” (Molecules, 2023)",
  "key": {"A375 (melanoma)": {"system": "A375 (melanoma)", "experiment": "SRB cytotoxicity assay, A375", "assay_type": "cell-based, human", "conditions": "Homo sapiens, A-375; Table 2; SRB assay, 72 h of treatment; cut-off 30 μM; read-out: Cytotoxicity (EC50) A375", "description": "(§1) Sulforhodamine (SRB) assays were performed to evaluate the cytotoxicity of the compounds. First, the cytotoxicity of the different rhodamines was determined; the results of these assays are compiled in Table 1 and Table 2 and depicted in Figure 1.\n(§2) Experimental equipment: as previously described biological assays were performed as previously reported employing cell lines obtained from the Department of Oncology [Martin-Luther-University Halle Wittenberg; they were bought from ATCC [2, 4, 7]]. Rhodamine 101 B, as well as asiatic acid, were obtained from local vendors and used as received.\n(§3) For the SRB assay and staining experiments: as previously described."}, "[1]": {"system": "HeLa (cervical adenocarcinoma)", "experiment": "SRB cytotoxicity assay, HeLa", "assay_type": "cell-based, human", "conditions": "Homo sapiens, HeLa; Table 2; SRB assay, 72 h of treatment; cut-off 30 μM; read-out: Cytotoxicity (EC50) HeLa", "description": "as §1, §2, §3"}, "[2]": {"experiment": "SRB cytotoxicity assay, NIH 3T3", "assay_type": "cell-based, murine", "conditions": "mouse, NIH 3T3 non-malignant fibroblasts, Table 2, 72 h of treatment, cut-off 30 μM", "description": "as §1, §2, §3"}, "[3]": {"system": "HT29 (colorectal carcinoma)", "experiment": "SRB cytotoxicity assay, HT29", "assay_type": "cell-based, human", "conditions": "Homo sapiens, HT-29; Table 2; SRB assay, 72 h of treatment; cut-off 30 μM; read-out: Cytotoxicity (EC50) HT29", "description": "as §1, §2, §3"}, "[4]": {"system": "A2780 (ovarian carcinoma)", "experiment": "SRB cytotoxicity assay, A2780", "assay_type": "cell-based, human", "conditions": "Homo sapiens, A2780; Table 2; SRB assay, 72 h of treatment; cut-off 30 μM; read-out: Cytotoxicity (EC50) A2780", "description": "as §1, §2, §3"}, "[5]": {"system": "MCF7 (breast adenocarcinoma)", "experiment": "SRB cytotoxicity assay, MCF7", "assay_type": "cell-based, human", "conditions": "Homo sapiens, MCF7; Table 2; SRB assay, 72 h of treatment; cut-off 30 μM; read-out: Cytotoxicity (EC50) MCF7", "description": "as §1, §2, §3"}},
  "note": "Where a name gives a salt, the structure may show the parent alone.",
  "data": [
    {"smiles": "CCCN(CCC)c1ccc2c(-c3ccccc3C(=O)N3CCCN(C(=O)[C@]45CC[C@@H](C)[C@H](C)[C@H]4C4=CC[C@@H]6[C@@]7(C)C[C@@H](OC(C)=O)[C@H](OC(C)=O)[C@@](C)(COC(C)=O)C7CC[C@@]6(C)[C@]4(C)CC5)CCC3)c3ccc(=[N+](CCC)CCC)cc-3oc2c1", "note": "(stereo partly drawn) (as salt: chloride) [compound 18, (2α,3β,4α)-9-[2-[{4-(2α,3β,23-Tris(Acetyloxy)-urs-12-en-28-oyl)-1,5-Diazocan-1-Yl]Carbonyl}Phenyl]-3,6-Bis(Dipropylamino)-Xanthylium Chloride]", "values": [
      {"measurement": "melting point", "result": "207 to 209", "unit": "°C"}
    ]},
    {"smiles": "CC(=O)OC[C@@]1(C)C2CC[C@]3(C)[C@H](CC=C4[C@@H]5[C@@H](C)[C@H](C)CC[C@]5(C(=O)N5CCN(C(=O)c6ccccc6-c6c7ccc(=[N+](C)C)cc-7oc7cc(N(C)C)ccc67)CC5)CC[C@]43C)[C@@]2(C)C[C@@H](OC(C)=O)[C@@H]1OC(C)=O", "note": "(stereo partly drawn) (as salt: chloride) [compound 6, (2α,3β,4α)-9-[2-{[4-(2,3,23-Tris(acetyloxy)-urs-12-en-28-oyl)-Piperazinyl]Carbonyl}Phenyl]-3,6-bis(Dimethylamino)-Xanthylium Chloride]", "values": [
      {"measurement": "melting point", "result": "248 to 250", "unit": "°C"}
    ]},
    {"smiles": "CCCN(CCC)c1ccc2c(-c3ccccc3C(=O)N3CCCN(C(=O)[C@]45CC[C@@H](C)[C@H](C)[C@H]4C4=CC[C@@H]6[C@@]7(C)C[C@@H](OC(C)=O)[C@H](OC(C)=O)[C@@](C)(COC(C)=O)C7CC[C@@]6(C)[C@]4(C)CC5)CC3)c3ccc(=[N+](CCC)CCC)cc-3oc2c1", "note": "(stereo partly drawn) (as salt: chloride) [compound 13, (2α,3β,4α)-9-[2-{[4-(2α,3β,23-Tris(Acetyloxy)-urs-12-en-28-oyl)-Homopiperazinyl]Carbonyl}Phenyl]-3,6-Bis(Dipropylamino)-Xanthylium Chloride]", "values": [
      {"measurement": "melting point", "result": "224 to 225", "unit": "°C"}
    ]},
    {"smiles": "CC(=O)OC[C@@]1(C)C2CC[C@]3(C)[C@H](CC=C4[C@@H]5[C@@H](C)[C@H](C)CC[C@]5(C(=O)N5CCN(C(=O)c6ccccc6C6=c7cc8c9c(c7Oc7c6cc6c%10c7CCCN%10CCC6)CCC[N+]=9CCC8)CC5)CC[C@]43C)[C@@]2(C)C[C@@H](OC(C)=O)[C@@H]1OC(C)=O", "note": "(stereo partly drawn) (as salt: chloride) [compound 10]", "values": [
      {"measurement": "melting point", "result": "244 to 247", "unit": "°C"}
    ]},
    {"smiles": "CCCCN(CCCC)c1ccc2c(-c3ccccc3C(=O)N3CCN(C(=O)[C@]45CC[C@@H](C)[C@H](C)[C@H]4C4=CC[C@@H]6[C@@]7(C)C[C@@H](OC(C)=O)[C@H](OC(C)=O)[C@@](C)(COC(C)=O)C7CC[C@@]6(C)[C@]4(C)CC5)CC3)c3ccc(=[N+](CCCC)CCCC)cc-3oc2c1", "note": "(stereo partly drawn) (as salt: chloride) [compound 9, (2α,3β,4α)-9-[2-{[4-(2,3,23-Tris(Acetyloxy)-urs-12-en-28-oyl)-Piperazinyl]Carbonyl}Phenyl]-3,6-Bis(Dibutylamino)-Xanthylium Chloride]", "values": [
      {"measurement": "melting point", "result": "222 to 226", "unit": "°C"}
    ]},
    {"smiles": "CC(=O)OC[C@@]1(C)C2CC[C@]3(C)[C@H](CC=C4[C@@H]5[C@@H](C)[C@H](C)CC[C@]5(C(=O)N5CCCN(C(=O)c6ccccc6C6=c7cc8c9c(c7Oc7c6cc6c%10c7CCCN%10CCC6)CCC[N+]=9CCC8)CC5)CC[C@]43C)[C@@]2(C)C[C@@H](OC(C)=O)[C@@H]1OC(C)=O", "note": "(stereo partly drawn) (as salt: chloride) [compound 15]", "values": [
      {"measurement": "melting point", "result": "287 to 289", "unit": "°C"}
    ]},
    {"smiles": "CCCN(CCC)c1ccc2c(-c3ccccc3C(=O)N3CCN(C(=O)[C@]45CC[C@@H](C)[C@H](C)[C@H]4C4=CC[C@@H]6[C@@]7(C)C[C@@H](OC(C)=O)[C@H](OC(C)=O)[C@@](C)(COC(C)=O)C7CC[C@@]6(C)[C@]4(C)CC5)CC3)c3ccc(=[N+](CCC)CCC)cc-3oc2c1", "note": "(stereo partly drawn) (as salt: chloride) [compound 8, (2α,3β,4α)-9-[2-{[4-(2,3,23-Tris(Acetyloxy)-urs-12-en-28-oyl)-Piperazinyl]Carbonyl}Phenyl]-3,6-Bis(Dipropylamino)-Xanthylium Chloride]", "values": [
      {"measurement": "melting point", "result": "226 to 228", "unit": "°C"}
    ]},
    {"smiles": "CCCCN(CCCC)c1ccc2c(-c3ccccc3C(=O)N3CCCN(C(=O)[C@]45CC[C@@H](C)[C@H](C)[C@H]4C4=CC[C@@H]6[C@@]7(C)C[C@@H](OC(C)=O)[C@H](OC(C)=O)[C@@](C)(COC(C)=O)C7CC[C@@]6(C)[C@]4(C)CC5)CC3)c3ccc(=[N+](CCCC)CCCC)cc-3oc2c1", "note": "(stereo partly drawn) (as salt: chloride) [compound 14, (2α,3β,4α)-9-[2-{[4-(2α,3β,23-Tris(Acetyloxy)-urs-12-en-28-oyl)-Homopiperazinyl]Carbonyl}Phenyl]-3,6-Bis(Dibutylamino)-Xanthylium Chloride]", "values": [
      {"measurement": "melting point", "result": "210 to 213", "unit": "°C"}
    ]},
    {"smiles": "CC(=O)OC[C@@]1(C)C2CC[C@]3(C)[C@H](CC=C4[C@@H]5[C@@H](C)[C@H](C)CC[C@]5(C(=O)N5CCCN(C(=O)c6ccccc6-c6c7ccc(=[N+](C)C)cc-7oc7cc(N(C)C)ccc67)CC5)CC[C@]43C)[C@@]2(C)C[C@@H](OC(C)=O)[C@@H]1OC(C)=O", "note": "(stereo partly drawn) (as salt: chloride) [compound 11, (2α,3β,4α)-9-[2-{[4-(2α,3β,23-Tris(Acetyloxy)-urs-12-en-28-oyl)-Homopiperazinyl]Carbonyl}Phenyl]-3,6-Bis(Dimethylamino)-Xanthylium Chloride]", "values": [
      {"measurement": "melting point", "result": "258 to 260", "unit": "°C"}
    ]},
    {"smiles": "CCN(CC)c1ccc2c(-c3ccccc3C(=O)N3CCCN(C(=O)[C@]45CC[C@@H](C)[C@H](C)[C@H]4C4=CC[C@@H]6[C@@]7(C)C[C@@H](OC(C)=O)[C@H](OC(C)=O)[C@@](C)(COC(C)=O)C7CC[C@@]6(C)[C@]4(C)CC5)CCC3)c3ccc(=[N+](CC)CC)cc-3oc2c1", "note": "(stereo partly drawn) [compound 17, (2α,3β,4α)-9-[2-[{4-(2α,3β,23-Tris(Acetyloxy)-urs-12-en-28-oyl)-1,5-Diazocan-1-Yl]Carbonyl}Phenyl]-3,6-Bis(Diethylamino)-Xanthylium Chloride]", "values": [
      {"measurement": "EC50", "setting": "A375 (melanoma)", "result": "30 ± 10", "unit": "nM"},
      {"measurement": "EC50", "setting": "[1]", "result": "60 ± 10", "unit": "nM"},
      {"measurement": "EC50 at 72 h", "setting": "[2]", "result": "450 ± 20", "unit": "nM"},
      {"measurement": "EC50", "setting": "[3]", "result": "30 ± 10", "unit": "nM"},
      {"measurement": "EC50", "setting": "[4]", "result": "7 ± 2", "unit": "nM"},
      {"measurement": "EC50", "setting": "[5]", "result": "25 ± 20", "unit": "nM"}
    ]},
    {"smiles": "CCCN(CCC)c1ccc2c(-c3ccccc3C(=O)N3CCN(C(=O)[C@]45CC[C@@H](C)[C@H](C)[C@H]4C4=CC[C@@H]6[C@@]7(C)C[C@@H](OC(C)=O)[C@H](OC(C)=O)[C@@](C)(COC(C)=O)C7CC[C@@]6(C)[C@]4(C)CC5)CC3)c3ccc(=[N+](CCC)CCC)cc-3oc2c1", "note": "(stereo partly drawn) [compound 8, (2α,3β,4α)-9-[2-{[4-(2,3,23-Tris(Acetyloxy)-urs-12-en-28-oyl)-Piperazinyl]Carbonyl}Phenyl]-3,6-Bis(Dipropylamino)-Xanthylium Chloride]", "values": [
      {"measurement": "EC50", "setting": "A375 (melanoma)", "result": "32 ± 3", "unit": "nM"},
      {"measurement": "EC50", "setting": "[1]", "result": "160 ± 50", "unit": "nM"},
      {"measurement": "EC50 at 72 h", "setting": "[2]", "result": "440 ± 90", "unit": "nM"},
      {"measurement": "EC50", "setting": "[3]", "result": "31 ± 7", "unit": "nM"},
      {"measurement": "EC50", "setting": "[4]", "result": "5.5 ± 0.5", "unit": "nM"},
      {"measurement": "EC50", "setting": "[5]", "result": "34 ± 5", "unit": "nM"}
    ]},
    {"smiles": "CC(=O)OC[C@@]1(C)C2CC[C@]3(C)[C@H](CC=C4[C@@H]5[C@@H](C)[C@H](C)CC[C@]5(C(=O)N5CCCN(C(=O)c6ccccc6-c6c7ccc(=[N+](C)C)cc-7oc7cc(N(C)C)ccc67)CCC5)CC[C@]43C)[C@@]2(C)C[C@@H](OC(C)=O)[C@@H]1OC(C)=O", "note": "(stereo partly drawn) [compound 16, (2α,3β,4α)-9-[2-[{4-(2α,3β,23-Tris(Acetyloxy)-urs-12-en-28-oyl)-1,5-Diazocan-1-Yl]Carbonyl}Phenyl]-3,6-Bis(Dimethylamino)-Xanthylium Chloride]", "values": [
      {"measurement": "EC50", "setting": "A375 (melanoma)", "result": "70 ± 10", "unit": "nM"},
      {"measurement": "EC50", "setting": "[1]", "result": "500 ± 200", "unit": "nM"},
      {"measurement": "EC50 at 72 h", "setting": "[2]", "result": "400 ± 90", "unit": "nM"},
      {"measurement": "EC50", "setting": "[3]", "result": "50 ± 20", "unit": "nM"},
      {"measurement": "EC50", "setting": "[4]", "result": "6 ± 1", "unit": "nM"},
      {"measurement": "EC50", "setting": "[5]", "result": "50 ± 10", "unit": "nM"}
    ]}
  ]
}
